Laboratory results taken from patent publication US8207310B2, “Antibodies to proteolysis inducing factor (PIF) receptor and methods of use thereof” (Ashton University, priority 2006, dated 2012).
Entries after “also recorded” stand apart in the source; their conditions may differ.

Tested on: PIF receptors on C2C12 membranes
Test: Competitive binding of [35S]PIF to C2C12 membranes
Parameters: species or system mouse
Conditions: result in words
Experimental: Competitive binding of [^35S]PIF C2C12 membranes (200 μg) in PBS (250 μl) were incubated with 1, 5, 10, 50, 100, 500 or 1000 ng of either monoclonal antibody, chondroitin, dermatan or heparan sulfate and 20 nM (480 ng) of [^35S]PIF overnight at 4° C. The bound radioactivity was determined from the radioactivity in the pellet obtained by centrifugation at 13,000 g for 5 min.
The Kaff was determined according to a modification (Clark, B. R. and Todd, C. W. Avidin as a precipitant for biotin-labelled antibody in a radioimmunoassay for carcinoembryonic antigen. Anal. Biochem., 121: 257-262, 1982.) of the method of Muller (Muller, R.
Calculation of average antibody affinity in anti-hapten sera from data obtained by competitive radioimmunoassay. J. Immunol. Methods, 34: 345-352, 1980.). Kaff=^1/(It−Tt)(1−[…]+0.5b^2) where It is the inhibitor concentration at 50% inhibition of PIF binding; Tt the total PIF concentration; b the fraction of PIF bound in the absence of inhibitor.

Substance	inhibition of binding of PIF to receptors on C2C12 membranes
chondroitin sulfate	competitive inhibition; also recorded: specifically inhibited
heparan sulfate	not
